{
  "source": "patent EP0432309B1",
  "about": "“Sugar derivatives, process for their preparation and their use” (Laevosan-Gesellschaft m.b.H., priority 1989, dated 1991)",
  "key": {"[1]": {"system": "humanen Ovarialkarzinom-Zellkultur (HOC-7)", "test": "human tumour cloning assay (HTCA): clonal growth of single malignant cells in semisolid media, colonies counted after 21 days", "assay_type": "cell-based", "details": "for Kolonienüberleben: HOC-7, 21 days; for antiproliferative/cytotoxische Wirkung: HOC-7, HTCA, result in words", "text": "Zur Prüfung auf ihre antiproliferativen/cytotoxischen Eigenschaften wurden die erfindungsgemäßen Verbindungen der Formel I und II mittels einer humanen Ovarialkarzinom-Zellkultur (HOC-7) getestet, wobei als Testsystem der sogenannte human tumour cloning assay (HTCA) herangezogen wurde, ein System, in dem das klonale Wachstum maligner Einzelzellen in semisoliden Medien selektiv erfaßt wird (vgl. S. Hamburger, Science 197, (1977), 461). Dabei zeigten die Verbindungen eine überraschend hohe antiproliferative/cytotoxische Wirkung.\nDas in Beispiel 1 hergestellte 3-DGP sowie DGP-DA von Beispiel 2 wurden hinsichtlich ihrer antiproliferativen/cytotoxischen Eigenschaften mittels einer humanen Ovarialkarzinom-Zellkultur (HOC-7) getestet, wobei als Testsystem der sogenannte human tumour cloning assay (HTCA) herangezogen wurde, ein System, in dem das klonale Wachstum maligner Einzelzellen in semisoliden Medien selektiv erfaßt wird (vgl. S. Hamburger, Science 197, (1977), 461).\nJe eine wäßrige Lösung von 3-DGP und DGP-DA wurde in folgender Verdünnungsreihe getestet.\nwobei sowohl ein […] (in Form von HgCl₂) als auch ein Ansatz mit Lösungsmittel (Aqua bidest) mitgeführt wurde.\nDie Kulturen wurden bei 37°C, 5 % CO₂, 100 % Luftfeuchtigkeit 21 Tage inkubiert, danach wurden die Kultursysteme aufgearbeitet, wobei die gewachsenen Kolonien (Klone) unter dem Mikroskop ausgezählt wurden.\nAls Wirksamkeit der getesteten Lösung wurde ein Kolonienüberleben < 50 % der Kontrolle definiert."}, "[2]": {"system": "Escherichia coli ATCC 8739", "test": "preservation test according to DAB 9, VIII, N1 (colony counts over time)", "assay_type": "cell-based", "details": "E. coli; for KBE nach 10 Tagen: 10 days; for KBE nach 3 Tagen: 3 days; for KBE nach 1 Tag: 1 day", "text": "(§1) Die erfindungsgemäßen Verbindungen weisen eine bakterizide Wirksamkeit auf, wie die nachstehend angegebenen Versuchsergebnisse zeigen: Präparat: Di-deoxy-glyceropentulose-Dianhydrid 0,3 %, 1 % und 3 % Die Untersuchung wurde mit folgenden Keimen durchgeführt: Escherichia coli ATCC 8739 Pseudomonas aeruginosa ATCC 9027 Staphylococcus aureus ATCC 6538 Candida albicans ATCC 10231 Aspergillus niger ATCC 16404 Tabelle 6\n(§2) Analog Beispiel 9 wurde die bakterizide Wirksamkeit von DGP untersucht. Präparat: DGP-wässriger Sirup 0,3 %, 1 % und 3 %, Charge: 91621 Die Untersuchung wurde mit folgenden Keimen durchgeführt: Escherichia coli ATCC 8739 Pseudomonas aeruginosa ATCC 9027 Staphyloccus aureus ATCC 6538 Candida albicans ATCC 10231 Aspergillus niger ATCC 16404 Tabelle 7"}, "[3]": {"system": "Pseudomonas aeruginosa ATCC 9027", "test": "preservation test according to DAB 9, VIII, N1 (colony counts over time)", "assay_type": "cell-based", "details": "Pseud. aerug.; for KBE nach 10 Tagen: 10 days; for KBE nach 3 Tagen: 3 days; for KBE nach 1 Tag: 1 day", "text": "as §1, §2"}, "[4]": {"system": "Staphylococcus aureus ATCC 6538", "test": "preservation test according to DAB 9, VIII, N1 (colony counts over time)", "assay_type": "cell-based", "details": "Staph. aureus; for KBE nach 10 Tagen: 10 days; for KBE nach 3 Tagen: 3 days; for KBE nach 1 Tag: 1 day", "text": "as §1, §2"}, "[5]": {"test": "stability / hydrolysis in aqueous solution", "assay_type": "physicochemical", "details": "result in words", "procedure": "Aus den geeigneten Fraktionen kann hochgereinigte 3-DGP als farbloser, nicht kristallisierender Sirup erhalten werden. Da die Substanz unter wasserfreien oder wasserarmen Bedingungen zur Bildung von dimeren Anhydriden neigt, ist es zweckmäßig, sie als etwa 50 %ige wäßrige Lösung herzustellen und aufzubewahren. […] Erhöhung der Temperatur und Absenken des pH-Wertes beschleunigen diese Zersetzung. Für die Aufbewahrung ist es daher zweckmäßig, Temperaturen von ≦ 4°C und pH-Werte zwischen 5 und 6 einzuhalten. In solchen Lösungen liegt offenbar ein Gemisch der alpha- und beta-Furanosen und des offenkettigen Ketozuckers vor.\nDie Glycoside bilden sich außerordentlich leicht aus den Lösungen von 3-DGP in den entsprechenden Alkoholen in Gegenwart sehr geringer Mengen an Säure oder Ionenaustauscher in der H⁺-Form als Katalysator bereits nach kurzer Behandlung bei Raumtemperatur. Ebenso leicht tritt in wäßriger Lösung Hydrolyse der Glycoside ein, so daß unter physiologischen Bedingungen eine Äquivalenz mit freier 3-DGP erwartet werden kann.\nDas Dianhydrid der Formel II (R = H) bildet sich leicht bei Behandlung von mäßig sauren 3-DGP-Lösungen mit wasserentziehenden Mitteln, wie z.B. wasserfreiem Natriumsulfat oder Calciumsulfat, oder beim Eindampfen von wäßrigen oder organischen Lösungen von 3-DGP und Stehenlassen des wasserfreien Produktes."}, "[6]": {"details": "result in words"}},
  "data": [
    {"smiles": "O=C(CO)C[C@H](O)CO", "note": "[DGP, 3-Deoxy-D-Glyceropentulose]", "values": [
      {"measurement": "Kolonienüberleben", "setting": "[1]; Testkonzentration C-F (5.000-250 µg/ml im Petrischälchen), % of control", "value": 0, "unit": "% = Wirksamkeit"},
      {"measurement": "Kolonienüberleben", "setting": "[1]; Testkonzentration F1 (200 µg/ml)", "value": "0,08 % = Wirksamkeit"},
      {"measurement": "Kolonienüberleben", "setting": "[1]; Testkonzentration F2 (152 µg/ml)", "value": 10, "unit": "% = Wirksamkeit"},
      {"measurement": "Kolonienüberleben", "setting": "[1]; Testkonzentration F3 (100 µg/ml)", "value": "44 % = intermediäre Wirksamkeit"},
      {"measurement": "Kolonienüberleben", "setting": "[1]; Testkonzentration G-J (50-2,5 µg/ml)", "value": "65 - 84 % = keine Wirksamkeit"},
      {"measurement": "KBE nach 10 Tagen", "setting": "[2]; Konz 3 %", "value": 0, "unit": "KBE"},
      {"measurement": "KBE nach 10 Tagen", "setting": "[3]; Konz 0,3 %", "value": 0, "unit": "KBE"},
      {"measurement": "KBE nach 3 Tagen", "setting": "[3]; Konz 1 %", "value": 0, "unit": "KBE"},
      {"measurement": "KBE nach 10 Tagen", "setting": "[3]; Konz 1 %", "value": 0, "unit": "KBE"},
      {"measurement": "KBE nach 1 Tag", "setting": "[3]; Konz 3 %", "value": 15, "unit": "KBE"},
      {"measurement": "KBE nach 3 Tagen", "setting": "[3]; Konz 3 %", "value": 0, "unit": "KBE"},
      {"measurement": "KBE nach 10 Tagen", "setting": "[3]; Konz 3 %", "value": 0, "unit": "KBE"},
      {"measurement": "KBE nach 10 Tagen", "setting": "[4]; Konz 0,3 %", "value": 0, "unit": "KBE"},
      {"measurement": "KBE nach 10 Tagen", "setting": "[4]; Konz 1 %", "value": 0, "unit": "KBE"},
      {"measurement": "KBE nach 3 Tagen", "setting": "[4]; Konz 3 %", "value": 0, "unit": "KBE"},
      {"measurement": "KBE nach 10 Tagen", "setting": "[4]; Konz 3 %", "value": 0, "unit": "KBE"},
      {"measurement": "Stabilität der wäßrigen Lösung", "setting": "[5]", "value": "relativ instabil"}
    ]},
    {"smiles": "OC1COC2(COC3(CO2)CC(O)CO3)C1", "note": "[DGP-DA, Di-(3-deoxy-D-glyceropentulose)-dianhydrid]", "values": [
      {"measurement": "Kolonienüberleben", "setting": "[1]; Testkonzentration C (5.000 µg/ml)", "value": 30, "unit": "% = Wirksamkeit"},
      {"measurement": "Kolonienüberleben", "setting": "[1]; Testkonzentration D (2.500 µg/ml)", "value": "50 % = intermediäre Wirksamkeit"},
      {"measurement": "Kolonienüberleben", "setting": "[1]; Testkonzentration E (500 µg/ml)", "value": "57 % = intermediäre Wirksamkeit"},
      {"measurement": "Kolonienüberleben", "setting": "[1]; Testkonzentration F-J (250-2,5 µg/ml)", "value": "61 - 89 % = keine Wirksamkeit"},
      {"measurement": "KBE nach 3 Tagen", "setting": "[2]; Konz 0,3 %", "value": 0, "unit": "KBE"},
      {"measurement": "KBE nach 10 Tagen", "setting": "[2]; Konz 0,3 %", "value": 0, "unit": "KBE"},
      {"measurement": "KBE nach 1 Tag", "setting": "[2]; Konz 1 %", "value": 0, "unit": "KBE"},
      {"measurement": "KBE nach 3 Tagen", "setting": "[2]; Konz 1 %", "value": 0, "unit": "KBE"},
      {"measurement": "KBE nach 10 Tagen", "setting": "[2]; Konz 1 %", "value": 0, "unit": "KBE"},
      {"measurement": "KBE nach 1 Tag", "setting": "[2]; Konz 3 %", "value": 0, "unit": "KBE"},
      {"measurement": "KBE nach 3 Tagen", "setting": "[2]; Konz 3 %", "value": 0, "unit": "KBE"},
      {"measurement": "KBE nach 10 Tagen", "setting": "[2]; Konz 3 %", "value": 0, "unit": "KBE"},
      {"measurement": "KBE nach 1 Tag", "setting": "[3]; Konz 3 %", "value": 0, "unit": "KBE"},
      {"measurement": "KBE nach 3 Tagen", "setting": "[3]; Konz 3 %", "value": 0, "unit": "KBE"},
      {"measurement": "KBE nach 10 Tagen", "setting": "[3]; Konz 3 %", "value": 0, "unit": "KBE"},
      {"measurement": "KBE nach 1 Tag", "setting": "[4]; Konz 0,3 %", "value": 0, "unit": "KBE"},
      {"measurement": "KBE nach 3 Tagen", "setting": "[4]; Konz 0,3 %", "value": 0, "unit": "KBE"},
      {"measurement": "KBE nach 10 Tagen", "setting": "[4]; Konz 0,3 %", "value": 0, "unit": "KBE"},
      {"measurement": "KBE nach 1 Tag", "setting": "[4]; Konz 1 %", "value": 0, "unit": "KBE"},
      {"measurement": "KBE nach 3 Tagen", "setting": "[4]; Konz 1 %", "value": 0, "unit": "KBE"},
      {"measurement": "KBE nach 10 Tagen", "setting": "[4]; Konz 1 %", "value": 0, "unit": "KBE"},
      {"measurement": "KBE nach 1 Tag", "setting": "[4]; Konz 3 %", "value": 0, "unit": "KBE"},
      {"measurement": "KBE nach 3 Tagen", "setting": "[4]; Konz 3 %", "value": 0, "unit": "KBE"},
      {"measurement": "KBE nach 10 Tagen", "setting": "[4]; Konz 3 %", "value": 0, "unit": "KBE"},
      {"measurement": "Stabilität der wäßrigen Lösung", "setting": "[5]", "value": "leicht zum Monomeren spaltbar"}
    ]},
    {"smiles": "CCCCOC1(COC(C)=O)C[C@H](OC(C)=O)CO1", "note": "(stereo partly drawn) [Diacyl-n-butyl-glycosid, n-Butyl-1,4-Diacetyl-3-Deoxy-D-Glyceropentulosid]", "values": [
      {"measurement": "antiproliferative/cytotoxische Wirkung", "setting": "[1]", "value": "eindeutige antiproliferative/cytotoxische Wirkung"}
    ]},
    {"smiles": "COC1(CO)C[C@H](O)CO1", "note": "(stereo partly drawn) [Methylglycosid, Methyl-3-Deoxy-D-Glyceropentulosid]", "values": [
      {"measurement": "antiproliferative/cytotoxische Wirkung", "setting": "[1]", "value": "eindeutige antiproliferative/cytotoxische Wirkung"}
    ]},
    {"smiles": "[Cl][Hg][Cl]", "note": "[Negativkontrolle, HgCl₂, reference compound]", "values": [
      {"measurement": "Kolonienüberleben", "setting": "[1]; Negativkontrolle VI (HgCl₂), concentration not given", "value": 0, "unit": "%"}
    ]},
    {"smiles": "CCCCOC1(CO)C[C@H](O)CO1", "note": "(stereo partly drawn) [n-Butylglycosid, n-Butyl-3-Deoxy-D-Glyceropentulosid]", "values": [
      {"measurement": "Löslichkeit", "setting": "[6]", "value": "gut löslich in Wasser, Alkoholen und niederen Ketonen"},
      {"measurement": "antiproliferative/cytotoxische Wirkung", "setting": "[1]", "value": "eindeutige antiproliferative/cytotoxische Wirkung"}
    ]}
  ]
}
